Test results reported in patent US20070225278A1, “Methods for treating cognitive and other disorders” (priority 2006, published 2007).

How the values were obtained:
male Sprague-Dawley rats = experiment: Schedule-induced polydipsia (SIP) in rats; type: in vivo, rat
Text: SIP is a model of obsessive-compulsive disorder. In this model, a food pellet is delivered once per minute for a two-hour period. A water bottle is available in the chamber. […] This excessive manifestation of a normal behavior (drinking) provides face validity to the model. […] Most importantly, clinically effective drugs for the treatment of obsessive-compulsive disorder decrease adjunctive drinking.
Animals: Male Sprague-Dawley rats weighing 275-325 g were individually housed in wire hanging cages. Each cage was equipped with a water spigot attached to an automated watering system which allow free access to water at all times.
Methods Rats were placed in an operant chamber (Med Associates) equipped with a pellet dispenser, a food receptacle, a houselight and a water bottle with 100 ml of water. Houselights were turned on in the chamber and a food pellet (Bioserve, 45 mg) was delivered on a fixed-time 60 sec schedule, such that one pellet was delivered each minute during a 2 hour experimental session. At the end of the session, water intake was measured.
Experiments to control for schedule and baseline water intake were conducted by placing 120 pellets in the food receptacle at the start of a 2-hour experimental session. Houselights were turned on, but no additional food pellets were delivered. At the end of the session, water intake was measured.
Dose calculations were based on active moiety.
Evaluation of Results Data were analyzed using a one-way ANOVA. Post hoc tests comparing vehicle to doses of Compound 1 were conducted using contrasts in a least squares model. An ED50 value (dose decreasing polydipsic intake to 50% of vehicle values) was calculated using nonlinear regression models.

[1] = tested on: extracellular glutamate levels in the rat mPFC; experiment: In vivo microdialysis, glutamate in medial prefrontal cortex; conditions: 17 mg/kg s.c., acute
Method: Animals: Adult male Sprague-Dawley rats (Charles River, Wilmington, Mass.) weighing 280-350 g at the time of surgery were used for all microdialysis experiments. Adult male Long-Evans rats (Charles River, Wilmington, Mass.) weighing 180-220 g were used for NOR studies. Rats were housed individually for recognition memory studies. All animals had free access to food and water and were group housed in the AAALAC-accredited facility that was maintained on a 12 h light dark cycle (lights on at 0600 h) for at least 1 week prior to surgery or behavioral testing. All in vivo studies were performed in accordance to the ‘Guide for the Care and Use of Laboratory Animals’ as adopted and promulgated by the National Institutes of Health (Pub. 85-23, 1985).
Stereotaxic Surgery Following induction of anesthesia with 3% halothane (Fluothane; Zeneca, Cheshire, UK), animals were secured in a stereotaxic frame with ear and incisor bars (David Kopf, Tujunga, Calif.). Anesthesia was maintained by continuous administration of halothane (1-2%) while a microdialysis guide cannula (CMA/12, CMA Microdialysis, Stockholm, Sweden) was implanted above the medial prefrontal cortex (AP: 3.2 mm ML: −0.6 mm DV: −3.8 mm). […]
Dialysate (10 μL) f was collected and analyzed for extracellular glutamate concentrations. […]

[2] = tested on: male Sprague Dawley CD rats; experiment: Reversal of MK-801 induced deficits in PPI; conditions: 3-30 mg/kg IP, MK-801 0.15 mg/kg SC

Structure (SMILES): c1cc2c3c(c1)[C@H]1CCC[C@H]1N3CCNC2 [Compound 1]
- change in excessive water intake (male Sprague-Dawley rats; 3 mg/kg ip, p=0.0003): −43%
- change in excessive water intake (male Sprague-Dawley rats; 10 mg/kg ip, p<0.0001): −87%
- ED50 (male Sprague-Dawley rats; Rattus norvegicus, ip, read-out: ED50 (dose decreasing polydipsic intake to 50% of vehicle values)): 3.16 mg/kg
- rats that did not eat all of their food pellets during the 2-hour session (male Sprague-Dawley rats; highest dose (10 mg/kg ip)): 3 of 10
- MED for decrease in adjunctive drinking (male Sprague-Dawley rats; ip, acute, 2 hour session): 3 mg/kg
- glutamate levels compared to vehicle-treated animals [1]: 210%
- reduction of the increase in startle produced by MK-801 ([2]; all doses tested): did significantly reduce
- attenuation of MK-801 induced disruption in gating (PPI) ([2]; any dose tested): did not show an ability to significantly attenuate
